39 compounds from patent US8822447B2, “Indazole compounds useful as ketohexokinase inhibitors” (Janssen Pharmaceutica NV, priority 2010, dated 2014) can be followed below.

Counter-ions that a name gives are not always drawn. A value given as a limit tells only on which side of the number the result lay.

This test deals with KHK (Homo sapiens (Human), UniProt P50053). Put plainly: In Vitro KHK Enzyme Assay (HTMS).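 Also: primary screen measuring inhibition of KHK-catalysed conversion of D-fructose into fructose 1-phosphate.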 The note with it: 200 μM fructose, 100 μM ATP, 2 nM KHK, 60 min at 25° C.; Fructose-1-P detected by high throughput mass spectrometry. In kind it is biochemical.
Sequence of KHK (P50053 whole entry): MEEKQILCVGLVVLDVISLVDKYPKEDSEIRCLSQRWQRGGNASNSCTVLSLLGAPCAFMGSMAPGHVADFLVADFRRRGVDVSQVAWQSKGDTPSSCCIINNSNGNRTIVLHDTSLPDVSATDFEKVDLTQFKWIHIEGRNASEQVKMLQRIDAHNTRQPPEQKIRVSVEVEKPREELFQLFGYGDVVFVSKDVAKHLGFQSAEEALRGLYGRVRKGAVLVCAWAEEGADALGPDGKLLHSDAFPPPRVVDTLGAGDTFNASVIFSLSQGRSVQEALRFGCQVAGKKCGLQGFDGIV
Protocol: An enzymatic assay was developed to measure KHK-mediated conversion of D-fructose to Fructose-1-P (F-1-P) using High Throughput Mass Spectroscopy (HTMS) as a means of product detection. This assay served as a primary screen to evaluate the ability to inhibit KHK enzyme activity and it has been adapted to high throughput mass spectrometry (HTMS, BioTrove RapidFire™) format for higher throughput.
The compounds to be tested were dosed in 12-points concentration from 511 μM to 0.5 μM. […] The assay was carried out in 384-well plate format.
What is called IC50 is the concentration needed to halve the response being measured. Low readings indicate inhibition by little substance, high ones a need for much substance. On to `Cc1nn(-c2ccccc2)c2cc(N3CCN(c4ccncc4)CC3)ccc12` [Compound 65, 3-Methyl-1-phenyl-6-(4-(pyridin-4-yl)piperazin-1-yl)-1H-indazole hydrochloride], for which half-maximal inhibition (IC50) was put at 7.73 µM.

In turn, `Cc1nn(-c2ccccc2)c2cc(NC(=O)c3ccc4[nH]cnc4c3)ccc12` [Compound 66, N-(3-methyl-1-phenyl-1H-indazol-6-yl)-1H-benzo[d]imidazole-5-carboxamide] had an IC50 of 0.16 µM.

`Cc1nn(-c2ccccc2)c2cc(N3CCN(C4CCNCC4)C3=O)ccc12` [Compound 67, 1-(3-Methyl-1-phenyl-1H-indazol-6-yl)-3-(piperidin-4-yl)imidazolidin-2-one hydrochloride]: the IC50 turned out to be 1.23 µM.

`Cc1nn(-c2ccccc2)c2cc(N3CCN(C)CC3)ccc12` [Compound 68, 3-Methyl-6-(4-methylpiperazin-1-yl)-1-phenyl-1H-indazole] registered an IC50 of 1.57 µM.

`CCN1CCN(c2ccc3c(C)nn(-c4ccccc4)c3c2)CC1` [Compound 69, 6-(4-Ethylpiperazin-1-yl)-3-methyl-1-phenyl-1H-indazole 2,2,2-trifluoroacetic acid salt] came in with a half-maximal inhibitory concentration (IC50) of 14.2 µM.

`Cc1nn(-c2ccccc2)c2cc(N3CCN(C(C)C)CC3)ccc12` [Compound 70, 6-(4-Isopropylpiperazin-1-yl)-3-methyl-1-phenyl-1H-indazole formic acid salt] yielded an IC50 of 14.7 µM.

`Cc1nn(-c2ccccc2)c2cc(N3CCNC(C)C3)ccc12` (stereo not drawn) [Compound 71, 3-Methyl-6-(3-methylpiperazin-1-yl)-1-phenyl-1H-indazole formic acid salt] registered an IC50 of 0.4 µM.

Consider `Cc1nn(-c2ccccc2)c2cc(N3CCC(N)C3)ccc12` (stereo not drawn) [Compound 72, 1-(3-Methyl-1-phenyl-1H-indazol-6-yl)pyrrolidin-3-amine formic acid salt], for which the IC50 was 0.68 µM.

`COc1nn(-c2ccccc2)c2cc(N3CC(N4CCNCC4)C3)ccc12` [Compound 73, 3-Methoxy-1-phenyl-6-(3-(piperazin-1-yl)azetidin-1-yl)-1H-indazole hydrochloride] yielded an IC50 of 0.39 µM.

The compound `COc1nn(-c2ccccc2)c2cc(N3CCN(C4CNC4)CC3)ccc12` [Compound 74, 6-(4-(Azetidin-3-yl)piperazin-1-yl)-3-methoxy-1-phenyl-1H-indazole hydrochloride] displayed an IC50 of 5.96 µM.

Turning to `COc1nn(-c2ccccc2)c2cc(N3CCN(C4CCNC4)CC3)ccc12` (stereo not drawn) [Compound 75, 3-Methoxy-1-phenyl-6-(4-(pyrrolidin-3-yl)piperazin-1-yl)-1H-indazole hydrochloride], the IC50 turned out to be 0.31 µM.

In turn, `COc1nn(-c2ccccc2)c2cc(N3CCN(C4CCNCC4)CC3)ccc12` [Compound 76, 3-Methoxy-1-phenyl-6-(4-(piperidin-4-yl)piperazin-1-yl)-1H-indazole hydrochloride] came in with an IC50 of 1.38 µM.

`COc1nn(-c2ccccc2)c2cc(N3CCN(c4ccncc4)CC3)ccc12` [Compound 77, 3-Methoxy-1-phenyl-6-(4-(pyridin-4-yl)piperazin-1-yl)-1H-indazole hydrochloride] yielded an IC50 of 8.1 µM.

The compound `COc1nn(-c2ccccc2)c2cc(-c3ccc(N4CCNCC4)cc3)ccc12` [Compound 78, 3-Methoxy-1-phenyl-6-(4-(piperazin-1-yl)phenyl)-1H-indazole hydrochloride] showed an IC50 of 4.42 µM.

Take `COc1nn(-c2ccccc2)c2cc(-c3ccc(-n4ccnc4)cc3)ccc12` [Compound 79, 6-(4-(1H-Imidazol-1-yl)phenyl)-3-methoxy-1-phenyl-1H-indazole]: the IC50 was more than 30 µM.

Compound `COc1nn(-c2ccccc2)c2cc(NC(=O)c3ccc4[nH]cnc4c3)ccc12` [Compound 80, N-(3-methoxy-1-phenyl-1H-indazol-6-yl)-1H-benzo[d]imidazole-5-carboxamide] yielded an IC50 of 4.5 µM.

`COc1nn(-c2ccccc2)c2cc(N3CCN(C4CCNCC4)C3=O)ccc12` [Compound 81, 1-(3-Methoxy-1-phenyl-1H-indazol-6-yl)-3-(piperidin-4-yl)imidazolidin-2-one hydrochloride] yielded an IC50 of 30 µM.

`CCc1nn(-c2ccccc2)c2nc(N3CCN(C4CNC4)CC3)ncc12` [Compound 82, 6-(4-Azetidin-3-yl-piperazin-1-yl)-3-ethyl-1-phenyl-1H-pyrazolo[3,4-d]pyrimidine] showed an IC50 of 23 µM.

As to `CCc1nn(-c2ccccc2)c2nc(N3CCN(c4cccnc4)CC3)ncc12` [Compound 83, 3-Ethyl-1-phenyl-6-(4-(pyridin-3-yl)piperazin-1-yl)-1H-pyrazolo[3,4-d]pyrimidine trifluoroacetic acid], the IC50 was more than 30 µM.

Regarding `Cc1nn(-c2ccccc2)c2nc(C3CCN(c4cccnc4)CC3)nc(O)c12` [Compound 84, 3-Methyl-1-phenyl-6-(3,4,5,6-tetrahydro-2H-[1,3′]bipyridinyl-4-yl)-1H-pyrazolo[3,4-d]pyrimidin-4-ol], the IC50 is more than 30 µM.

`Cc1nn(-c2ccccc2)c2nc(C3CCCN(C4CNC4)C3)nc(O)c12` (stereo not drawn) [Compound 85, 6-(1-Azetidin-3-yl-piperidin-3-yl)-3-methyl-1-phenyl-1H-pyrazolo[3,4-d]pyrimidin-4-ol] had an IC50 of 7.45 µM.

As to `Cc1nn(-c2ccccc2)c2nc(C3CCNCC3)nc(O)c12` [Compound 86, 3-Methyl-1-phenyl-6-piperidin-4-yl-1H-pyrazolo[3,4-d]pyrimidin-4-ol hydrochloride], the half-inhibitory concentration (IC50) was determined as 6.1 µM.

For the compound `Cc1nn(-c2ccccc2)c2nc(C3CCN(C(=O)C4CCNCC4)CC3)nc(O)c12` [Compound 87, [4-(4-Hydroxy-3-methyl-1-phenyl-1H-pyrazolo[3,4-d]pyrimidin-6-yl)-piperidin-1-yl]-piperidin-4-yl-methanone hydrochloride], the IC50 was more than 30 µM.

As for `Cc1nn(-c2ccccc2)c2nc(C3CCN(C4CCNC4)CC3)nc(O)c12` (stereo not drawn) [Compound 88, 3-Methyl-1-phenyl-6-(1-pyrrolidin-3-yl-piperidin-4-yl)-1H-pyrazolo[3,4-d]pyrimidin-4-ol hydrochloride], the midpoint of inhibition, the IC50, lay at 1.51 µM.

Regarding `Cc1nn(-c2ccccc2)c2nc(C3CCN(C4CCNCC4)CC3)nc(O)c12` [Compound 89, 6-[1,4′]Bipiperidinyl-4-yl-3-methyl-1-phenyl-1H-pyrazolo[3,4-d]pyrimidin-4-ol hydrochloride], 14 µM corresponded to half-maximal inhibition (IC50).

`Cc1nn(-c2ccccc2)c2nc(CC3CCN(C4CNC4)CC3)nc(O)c12` [Compound 90, 6-(1-Azetidin-3-yl-piperidin-4-ylmethyl)-3-methyl-1-phenyl-1H-pyrazolo[3,4-d]pyrimidin-4-ol] displayed an IC50 of more than 30 µM.

In turn, `CCc1nn(-c2ccccc2)c2nc(C3CCNCC3)nc(O)c12` [Compound 91, 3-Ethyl-1-phenyl-6-piperidin-4-yl-1H-pyrazolo[3,4-d]pyrimidin-4-ol hydrochloride] gave an IC50 of 2.4 µM.

`CCc1nn(-c2ccccc2)c2nc(C3CCN(c4ccncc4)CC3)nc(O)c12` [Compound 92, 3-Ethyl-1-phenyl-6-(3,4,5,6-tetrahydro-2H-[1,4′]bipyridinyl-4-yl)-1H-pyrazolo[3,4-d]pyrimidin-4-ol]: inhibition was half-maximal at 1.67 µM (IC50).

The compound `CCc1nn(-c2ccccc2)c2nc(C3CCN(c4cccnc4)CC3)nc(O)c12` [Compound 93, 3-Ethyl-1-phenyl-6-(3,4,5,6-tetrahydro-2H-[1,3′]bipyridinyl-4-yl)-1H-pyrazolo[3,4-d]pyrimidin-4-ol] displayed an IC50 of 7.9 µM.

`CCc1nn(-c2ccccc2)c2nc(C3CCN(C4CCNC4)CC3)nc(O)c12` (stereo not drawn) [Compound 94, 3-Ethyl-1-phenyl-6-(1-pyrrolidin-3-yl-piperidin-4-yl)-1H-pyrazolo[3,4-d]pyrimidin-4-ol hydrochloride] showed an IC50 of 5.27 µM.

For `CCc1nn(-c2ccccc2)c2nc(C3CCN(C4CCNCC4)CC3)nc(O)c12` [Compound 95, 6-[1,4′]Bipiperidinyl-4-yl-3-ethyl-1-phenyl-1H-pyrazolo[3,4-d]pyrimidin-4-ol hydrochloride], it took 11.5 µM to reach half-maximal inhibition (IC50).

In turn, `CCc1nn(-c2ccccc2)c2nc(C3CCN(C(=O)C4CCNCC4)CC3)nc(O)c12` [Compound 96, [4-(3-Ethyl-4-hydroxy-1-phenyl-1H-pyrazolo[3,4-d]pyrimidin-6-yl)-piperidin-1-yl]-piperidin-4-yl-methanone hydrochloride] came in with an IC50 of 30 µM.

`Cc1nn(-c2ccccc2)c2nc(-c3ccc(N4CCNCC4)cc3)cc(O)c12` [Compound 97, 3-Methyl-1-phenyl-6-(4-piperazin-1-yl-phenyl)-1H-pyrazolo[3,4-b]pyridin-4-ol] displayed an IC50 of 2.71 µM.

As to `CCc1nn(-c2ccccc2)c2nc(-c3ccc(N4CC(C)NC(C)C4)cc3)cc(OC)c12` (stereo not drawn) [Compound 98, 6-[4-(3,5-Dimethyl-piperazin-1-yl)-phenyl]-3-ethyl-4-methoxy-1-phenyl-1H-pyrazolo[3,4-b]pyridine], 0.3 µM corresponded to half-maximal inhibition (IC50).

Consider `COc1cc(-c2ccc(N3CCNCC3)cc2)nc2c1c(C)nn2-c1ccccc1` [Compound 99, 4-Methoxy-3-methyl-1-phenyl-6-(4-piperazin-1-yl-phenyl)-1H-pyrazolo[3,4-b]pyridine], for which it took 0.6 µM to reach half-maximal inhibition (IC50).

The compound `CCc1nn(-c2ccccc2)c2nc(-c3ccc(NC4CCNCC4)cc3)cc(O)c12` [Compound 100, 3-Ethyl-1-phenyl-6-[4-(piperidin-4-ylamino)-phenyl]-1H-pyrazolo[3,4-b]pyridin-4-ol] returned an IC50 of 1.72 µM.

Turning to `Cc1nn(-c2ccccc2)c2nc(-c3ccc(NC4CCNCC4)cc3)cc(O)c12` [Compound 101, 3-Methyl-1-phenyl-6-[4-(piperidin-4-ylamino)-phenyl]-1H-pyrazolo[3,4-b]pyridin-4-ol], the IC50 came out at 0.89 µM.

Regarding `CCOc1cc(-c2ccc(N3CCNCC3)cc2)nc2c1c(CC)nn2-c1ccccc1` [Compound 102, 4-Ethoxy-3-ethyl-1-phenyl-6-(4-piperazin-1-yl-phenyl)-1H-pyrazolo[3,4-b]pyridine], the IC50 was determined as 1.43 µM.

As to `CCOc1cc(-c2ccc(N3CCN(C)CC3)cc2)nc2c1c(CC)nn2-c1ccccc1` [Compound 103, 4-Ethoxy-3-ethyl-6-[4-(4-methyl-piperazin-1-yl)-phenyl]-1-phenyl-1H-pyrazolo[3,4-b]pyridine], the IC50 turned out to be 0.66 µM.
